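Compound exposure: 48 hours, 5 concentrations, 96-well plates. GI50 marks 50% less growth.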 Activity calls are given as the source filed them. Cut-off read from the data, not from the text of the source: active = GI50 up to about 1.1 µM and inactive = higher.
Experiments:
Experiment in all cases: NCI-60 cell line screen, 48 h
[1] = test system: PC-3
[2] = test system: HT-29
[3] = test system: DU-145
[4] = test system: HCT-116
[5] = test system: SF-539
[6] = test system: SNB-19
[7] = test system: COLO 205
[8] = test system: M14
[9] = test system: EKVX
[10] = test system: SNB-75
[11] = test system: UACC-257
[12] = test system: NCI-H460
[13] = test system: SK-MEL-28
[14] = test system: A498
[15] = test system: RPMI-8226
[16] = test system: HL-60
[17] = test system: MOLT-4
[18] = test system: HCT-15
[19] = test system: A549

SMILES	GI50 [1]	GI50 [2]	GI50 [3]	GI50 [4]	GI50 [5]	GI50 [6]	GI50 [7]	GI50 [8]	GI50 [9]	GI50 [10]	GI50 [11]	GI50 [12]	GI50 [13]	GI50 [14]	GI50 [15]	GI50 [16]	GI50 [17]	GI50 [18] [µM]	GI50 [19]
NC(=O)N/N=C/c1ccccc1O	> 100 µM (inactive)	> 100 µM (inactive)	> 100 µM (inactive)	> 100 µM (inactive)	> 100 µM (inactive)	> 100 µM (inactive)	> 100 µM (inactive)	> 100 µM (inactive)	45 µM (inactive)	> 100 µM (inactive)	> 100 µM (inactive)	> 100 µM (inactive)	> 100 µM (inactive)	> 100 µM (inactive)	> 100 µM (inactive)	53.1 µM (inactive)	> 100 µM (inactive)	> 100	–
CCc1ccccc1NC(=O)/C(=N/O)C(C)=O	–	> 100 µM (inactive)	–	> 100 µM (inactive)	> 100 µM (inactive)	> 100 µM (inactive)	> 100 µM (inactive)	> 100 µM (inactive)	> 100 µM (inactive)	> 100 µM (inactive)	> 100 µM (inactive)	> 100 µM (inactive)	> 100 µM (inactive)	> 100 µM (inactive)	> 100 µM (inactive)	> 100 µM (inactive)	> 100 µM (inactive)	> 100	> 100 µM (inactive)
COc1cc(CCCC(O)COc2cccc3c2C2(O)CCCCCC32)cc(OC)c1 (centres undefined)	–	7.26 µM (inactive)	–	17.7 µM (inactive)	13.4 µM (inactive)	17.8 µM (inactive)	2.53 µM (inactive)	17.5 µM (inactive)	16 µM (inactive)	12.1 µM (inactive)	15.6 µM (inactive)	17.6 µM (inactive)	17 µM (inactive)	19.9 µM (inactive)	18.5 µM (inactive)	22.2 µM (inactive)	17.7 µM (inactive)	17.6	16.1 µM (inactive)
Cc1nc2sccn2c1C(=O)NC(=O)Nc1ccc(Cl)cc1	–	> 100 µM (inactive)	–	46.2 µM (inactive)	41.2 µM (inactive)	42.2 µM (inactive)	> 100 µM (inactive)	> 100 µM (inactive)	> 100 µM (inactive)	24.3 µM (inactive)	> 100 µM (inactive)	> 100 µM (inactive)	> 100 µM (inactive)	> 100 µM (inactive)	> 100 µM (inactive)	> 100 µM (inactive)	> 100 µM (inactive)	> 100	57.4 µM (inactive)
Cc1n[n+]([O-])c(C)cc1[N+](=O)[O-]	23.8 µM (inactive)	14.1 µM (inactive)	21.7 µM (inactive)	16.1 µM (inactive)	27.6 µM (inactive)	39.4 µM (inactive)	13.5 µM (inactive)	15.7 µM (inactive)	23.5 µM (inactive)	23.8 µM (inactive)	15.6 µM (inactive)	14 µM (inactive)	18 µM (inactive)	18.1 µM (inactive)	0.552 µM (active)	–	–	15.9	22 µM (inactive)
O=CC1C(=O)Nc2nc3ccccc3n2C1c1ccccc1 (centres undefined)	18.4 µM (inactive)	20.4 µM (inactive)	12.7 µM (inactive)	12.4 µM (inactive)	17.9 µM (inactive)	–	11.4 µM (inactive)	16 µM (inactive)	22.5 µM (inactive)	5.75 µM (inactive)	15 µM (inactive)	29.4 µM (inactive)	19.6 µM (inactive)	14.3 µM (inactive)	16.3 µM (inactive)	20.6 µM (inactive)	0.258 µM (active)	15.1	23.3 µM (inactive)
COc1cc2c(cc1OCCCCN1CCN(CCCCOc3cc4c(cc3OC)C(=O)N3CCC[C@H]3C=N4)CC1)N=C[C@@H]1CCCN1C2=O	0.0873 µM (active)	0.0443 µM (active)	0.0361 µM (active)	0.0216 µM (active)	< 0.01 µM (active)	–	0.0158 µM (active)	0.02 µM (active)	0.281 µM (active)	0.0262 µM (active)	0.0627 µM (active)	0.0234 µM (active)	0.0206 µM (active)	0.0543 µM (active)	< 0.0125 µM (active)	< 0.01 µM (active)	< 0.01 µM (active)	1.14	0.0923 µM (active)
O=Nc1c(-c2cccc([N+](=O)[O-])c2)nc2cnccn12	24.9 µM (inactive)	14.3 µM (inactive)	16.4 µM (inactive)	4.68 µM (inactive)	20.3 µM (inactive)	> 100 µM (inactive)	20 µM (inactive)	18.7 µM (inactive)	34 µM (inactive)	35.2 µM (inactive)	19.7 µM (inactive)	33.9 µM (inactive)	21.5 µM (inactive)	–	–	34.2 µM (inactive)	3.92 µM (inactive)	14.5	29.5 µM (inactive)

Source: ChEMBL document CHEMBL1201862, “PubChem BioAssay data set” (2004)
